Experimental data published in patent US8501233B2, “Compositions and methods for treating cancer” (Wake Forest University, priority 2007, dated 2013).

Key:
[1] = test system: RKO cells; test: Cell death of RKO cells with Mitomycin C compositions, MTS assay (Example 7); assay type: cell-based, human; conditions: MMC 40 μM, including cells heated to 42° C.
Procedure: (§1) Three (3) 48 well plates containing 10,000-20,000 RKO cells/well (human colon carcinoma) were prepared for a series of experiments measuring cell death as a function of exposure to various compositions, including compositions according to some embodiments of the present invention.
(§2) RKO colorectal cancer cell lines were purchased from American Type Culture Collections (ATCC) and cultured in McCoys's media supplemented with 2.5 μg/ml of amphotericin, 1% L-glutamine, 1% penicillin/streptomycin, and 10% fetal bovine serum. Cells were seeded in wells of the appropriate trays at a density of 10,000-20,000 cells per well.
(§3) MWNTs were grown by chemical vapor deposition (CVD) using xylene as the carbon precursor and ferrocene as a catalyst at concentrations of 60 mg or 400 mg. Hydrogen and argon gases were used to flow the xylene through a preheater at 170° C. and a furnace oven at 700° C. An injection rate of 5 ml/hour for a one hour run yielded about 200 mg of carbon nanotubes.
(§4) 50 mg of the MWNTs were cut and cleaned by sonication in a mixture of 90 ml of concentrated sulfuric acid and 30 ml of concentrated nitric acid for 24 hours. The length of the nanotubes was about 2 μm as determined by transmission electron microscopy (TEM). MWNT suspensions were prepared by adding 1 mg of MWNT per 1 ml of aqueous solution comprising 0.1% by weight Pluronic 127® surfactant. […]

[2] = test system: RKO cells; test: Cell death of RKO cells after exposure to compositions, calorimetric assay (Example 4); assay type: cell-based, human; conditions: oxaliplatin 300 μM, heated to 42° C. for two hours
Procedure: Three (3) 48 well plates containing 20,000 RKO cells/well (human colon carcinoma) were prepared for a series of experiments measuring cell death as a function of exposure to various compositions, including compositions according to some embodiments of the present invention.
as §3
50 mg of the MWNTs were cut and cleaned by sonication in a mixture of 90 ml of concentrated sulfuric acid and 30 ml of concentrated nitric acid for 24 hours. The length of the nanotubes was about 2 μm as determined by transmission electron microscopy (TEM). MWNT suspensions were prepared by adding 1 mg of MWNT per 1 ml of aqueous solution having 0.1% by weight Pluronic 127® surfactant. The suspensions were sonicated to enhance MWNT dispersion. MWNT suspensions were diluted with water to a concentration of 100 μg MWNT/ml.
A solution comprising oxaliplatin at a concentration of 300 μM was obtained (Ox). […]
Cell death resulting from the addition of the various compositions at the three temperatures was monitored by calorimetric assay. […]

[3] = test system: HeLa cervical cancer cells; test: In vivo evaluation of localized hyperthermia, intraperitoneal cancer nodules in athymic mice (Example 11); conditions: Group 3 irradiated 10 seconds (42° C.), Group 2 heated 42° C. two hours, two weeks after treatment
Procedure: 15 athymic mice are divided equally into three treatment groups as provided in Table 13, with Group 1 receiving a treatment composition of 100 μg/ml of MWNTs, Group 2 receiving a treatment composition comprising 300 μM oxaliplatin, and Group 3 receiving a treatment composition comprising 300 μM oxaliplatin and 100 μg MWNT per ml.
Each animal of Groups 1-3 receives intraperitoneal injections of 1E6 HeLa cervical cancer cells which express folic acid receptors. […] Two weeks after the intraperitoneal injections of the cancerous cells, the intraperitoneal cavity of each animal in Groups 1-3 is exposed, and the cancer nodules photographed allowing size and number of the nodules to be recorded.
After examination and quantification of cancer nodules, two 5 ml solutions of FA functionalized MWNTs (100 μg/ml) are provided to the intraperitoneal cavity of each animal in Groups 1 and 3. […]
The animals of Groups 1-3 are allowed to recover for two weeks. […] The size and number of cancerous nodules at the time of sacrifice is compared to the initially recorded observations of size and number of cancerous nodules for each animal. Moreover, for each animal in the study, a total of about 1 to 10 mg of tumor nodule mass is retained to determine platinum content as determined by elemental analysis.

[4] = test system: RKO cells; test: Cell death / viability of RKO cells, MTS assay (Example 5); assay type: cell-based, human; conditions: oxaliplatin 300 μM, including cells heated to 42° C., MTS 48 hours after treatment
Procedure: as §1, with “cells/well (human colon carcinoma) and three (3) 48 well plates containing 10,000-20,000 HCT 116 cell/well” for “cells/well”
as §2, with “RKO and HCT 116” for “RKO”, “well. […]” for “well.”
50 mg of the MWNTs were cut and cleaned by sonication in a mixture of 90 ml of concentrated sulfuric acid and 30 ml of concentrated nitric acid for 24 hours. The length of the nanotubes was about 2 μm as determined by transmission electron microscopy (TEM). […]
Following incubation, the media in the wells of each of the plates was replaced with media containing MTS assay reagents from Promega's CellTiter 96® AQueous assay kit. Cell viability was quantified over a three hour period according to the manufacturers instructions.

[5] = test system: HCT 116 cells; test: Cell death of HCT 116 cells, single 8 second lasing (Example 8); assay type: cell-based, human; conditions: oxaliplatin 300 μM, including cells heated to 42° C.
Procedure: Two (2) 48 well plates containing 10,000-20,000 HCT 116 cells/well (human colon carcinoma) were prepared for a series of experiments measuring cell death as a function of exposure to various compositions, including compositions according to some embodiments of the present invention.
as §2, with “HCT 116” for “RKO”
as §3, §4

Row | SMILES | cell death [1] | cell death [2] | reduction in the sizes and numbers of cancerous nodules (Groups 2 and 3 compared) [3] | cell death [4] | cell death [5]
1 | CO[C@@]12[C@H](COC(N)=O)C3=C(C(=O)C(C)=C(N)C3=O)N1C[C@@H]1N[C@@H]12 [MMC, Mitomycin C] | significant death |  |  |  | 
2 | O=C1[O][Pt]2([NH][C@@H]3CCCC[C@H]3[NH]2)[O]C1=O [oxaliplatin] |  | significant | substantially similar reduction | significant death | significant death
